Source: patent US20100292266A1, “Oxazolyl Piperidine Modulators of Fatty Acid Amide Hydrolase” (priority 2006, published 2010)

Tests used:
Rat FAAH = target: T1, Rat FAAH (Rattus norvegicus, UniProt P97612); assay: Assay Method 2: FAAH assay, 3H-anandamide hydrolysis in cell homogenate; type: biochemical; conditions: transfected SK-N-MC cell homogenate, 80 nM 3H-AEA, 1 h rt, > = solubility limit or highest concentration tested
T1 construct: expressed in transfected cells
T1 sequence (P97612 1-579): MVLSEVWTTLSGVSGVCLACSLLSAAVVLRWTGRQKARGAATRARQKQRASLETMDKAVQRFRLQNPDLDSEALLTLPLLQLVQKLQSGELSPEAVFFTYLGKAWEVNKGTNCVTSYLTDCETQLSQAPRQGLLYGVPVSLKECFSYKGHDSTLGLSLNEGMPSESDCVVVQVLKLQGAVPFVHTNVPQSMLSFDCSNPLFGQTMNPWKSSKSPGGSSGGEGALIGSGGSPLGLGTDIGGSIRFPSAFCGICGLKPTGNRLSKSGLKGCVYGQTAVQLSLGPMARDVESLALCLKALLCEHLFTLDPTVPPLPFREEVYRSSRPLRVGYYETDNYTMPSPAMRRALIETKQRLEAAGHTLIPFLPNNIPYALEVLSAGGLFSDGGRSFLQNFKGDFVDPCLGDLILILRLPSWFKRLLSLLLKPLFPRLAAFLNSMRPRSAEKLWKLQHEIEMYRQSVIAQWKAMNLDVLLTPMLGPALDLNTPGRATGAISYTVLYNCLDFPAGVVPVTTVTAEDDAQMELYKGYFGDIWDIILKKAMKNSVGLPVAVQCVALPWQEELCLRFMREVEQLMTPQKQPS
Experimental: A. Transfection of Cells with Rat FAAH
(§1) A 10-cm tissue culture dish with a confluent monolayer of SK-N-MC cells was split 2 days (d) prior to transfection. Using sterile technique, the media was removed and the cells were detached from the dish by the addition of trypsin. One fifth of the cells were then placed onto a new 10-cm dish. Cells were grown in a 37° C. incubator with 5% CO2 in Minimal Essential Media Eagle with 10% Fetal Bovine Serum. After 2 d, cells were approximately 80% confluent. These cells were removed from the dish with trypsin and pelleted in a clinical centrifuge. The pellet was re-suspended in 400 μL complete media and transferred to an electroporation cuvette with a 0.4 cm gap between the electrodes. Supercoiled rat FAAH cDNA (1 μg) was added to the cells and mixed. The voltage for the electroporation was set at 0.25 kV, and the capacitance was set at 960 μF. After electroporation, the cells were diluted into complete media (10 mL) and plated onto four 10-cm dishes. Because of the variability in the efficiency of electroporation, four different concentrations of cells were plated. The ratios used were 1:20, 1:10, and 1:5, with the remainder of the cells being added to the fourth dish. The cells were allowed to recover for 24 h before adding the selection media (complete media with 600 μg/mL G418). After 10 d, dishes were analyzed for surviving colonies of cells. Dishes with well-isolated colonies were used. Cells from individual colonies were isolated and tested.
(§2) The assay mixture consisted of 50 μL of the cell homogenate, 10 μL of the test compound, and 40 μL of anandamide [1-^3H-ethanolamine] (^3H-AEA, Perkin-Elmer, 10.3 Ci/mmol), which was added last, for a final tracer concentration of 80 nM. The reaction mixture was incubated at it for 1 h. During the incubation, 96-well Multiscreen filter plates (catalog number MAFCNOB50; Millipore, Bedford, Mass., USA) were loaded with 25 μL of activated charcoal (Multiscreen column loader, catalog number MACL09625, Millipore) and washed once with 100 μL of MeOH. Also during the incubation, 96-well DYNEX MicroLite plates (catalog number NL510410) were loaded with 100 μL of MicroScint40 (catalog number 6013641, Packard Bioscience, Meriden, Conn., USA). After the 1 h incubation, 60 μL of the reaction mixture were transferred to the charcoal plates, which were then assembled on top of the DYNEX plates using Centrifuge Alignment Frames (catalog number MACF09604, Millipore). The unbound labeled ethanolamine . was centrifuged through to the bottom plate (5 min at 2000 rpm), which was preloaded with the scintillant, as described above. The plates were sealed and left at rt for 1 h before counting on a Hewlett Packard TopCount.
(§3) Where activity is shown as greater than (>) a particular value, the value is the solubility limit of the compound in the assay medium or the highest concentration tested in the assay.

FAAH = target: T2, FAAH (Homo sapiens, UniProt O00519); assay: Assay Method 1: FAAH assay, 3H-anandamide hydrolysis in cell homogenate; type: biochemical; design: expressed in transfected cells; conditions: T84 or transfected SK-N-MC cell homogenate, 80 nM 3H-AEA, 1 h rt, > = solubility limit or highest concentration tested
T2 sequence (O00519 1-579): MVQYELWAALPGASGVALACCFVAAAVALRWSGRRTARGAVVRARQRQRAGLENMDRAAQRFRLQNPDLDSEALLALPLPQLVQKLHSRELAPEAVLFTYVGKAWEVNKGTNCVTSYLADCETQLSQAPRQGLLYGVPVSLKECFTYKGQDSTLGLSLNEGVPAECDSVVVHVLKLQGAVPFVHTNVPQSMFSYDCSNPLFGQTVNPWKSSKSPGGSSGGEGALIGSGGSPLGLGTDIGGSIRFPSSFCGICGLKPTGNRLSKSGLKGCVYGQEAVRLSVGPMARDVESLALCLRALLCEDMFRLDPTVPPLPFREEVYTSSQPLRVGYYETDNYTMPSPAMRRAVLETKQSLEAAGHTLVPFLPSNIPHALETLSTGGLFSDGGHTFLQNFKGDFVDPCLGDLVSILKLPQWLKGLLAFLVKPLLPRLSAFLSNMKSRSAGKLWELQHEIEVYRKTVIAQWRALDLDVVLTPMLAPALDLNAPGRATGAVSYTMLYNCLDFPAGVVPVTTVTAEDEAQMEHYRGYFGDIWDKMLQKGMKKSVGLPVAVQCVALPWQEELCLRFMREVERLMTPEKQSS
Experimental: A. Transfection of Cells with Human FAAH
as §1, with “Supercoiled human” for “Supercoiled rat”
as §2, with “at rt” for “at it”, “ethanolamine” for “ethanolamine .”
as §3

IC50 (Rat FAAH) | IC50 (FAAH) | Structure (SMILES)
23 nM | 13 nM | CS(=O)(=O)c1cc(Br)ccc1CN1CCC(C(=O)c2ncco2)CC1 [Example 25, [1-(4-Bromo-2-methanesulfonyl-benzyl)-piperidin-4-yl]-oxazol-2-yl-methanone]
1400 nM | 170 nM | CCOc1cccc(CN2CCC(C(=O)c3ncco3)CC2)c1 [Example 29, [1-(3-Ethoxy-benzyl)-piperidin-4-yl]-oxazol-2-yl-methanone]
350 nM | 28 nM | O=C(c1ncco1)C1CCN(C(=O)c2ccc3ccccc3c2)CC1 [Example 10, [1-(Naphthalene-2-carbonyl)-piperidin-4-yl]-oxazol-2-yl-methanone]
76 nM | 30 nM | O=C(c1ncco1)C1CCN(Cc2ccc(F)c(F)c2)CC1 [Example 38, [1-(3,4-Difluoro-benzyl)-piperidin-4-yl]-oxazol-2-yl-methanone]
4 nM | 2 nM | Cc1cccc2cc(CN3CCC(C(=O)c4ncco4)CC3)c(Cl)nc12 [Example 73, [1-(2-Chloro-8-methyl-quinolin-3-ylmethyl)-piperidin-4-yl]-oxazol-2-yl-methanone]
873 nM | 148 nM | O=C(c1ncco1)C1CCN(Cc2ccc(F)cc2)CC1 [Example 30, [1-(4-Fluoro-benzyl)-piperidin-4-yl]-oxazol-2-yl-methanone]
75 nM | 11 nM | O=C(c1ncco1)C1CCN(Cc2ccc(Br)cc2F)CC1 [Example 27, [1-(4-Bromo-2-fluoro-benzyl)-piperidin-4-yl]-oxazol-2-yl-methanone]
3000 nM | 640 nM | Cc1cccc(CN2CCC(C(=O)c3ncco3)CC2)n1 [Example 83, [1-(6-Methyl-pyridin-2-ylmethyl)-piperidin-4-yl]-oxazol-2-yl-methanone]
1000 nM | 100 nM | O=C(c1ncco1)C1CCN(S(=O)(=O)c2ccc3ccccc3c2)CC1 [Example 1, [1-(Naphthalene-2-sulfonyl)-piperidin-4-yl]-oxazol-2-yl-methanone]
8 nM | 4 nM | Cn1c(CN2CCC(C(=O)c3ncco3)CC2)cc2ccccc21 [Example 50, [1-(1-Methyl-1H-indol-2-ylmethyl)-piperidin-4-yl]-oxazol-2-yl-methanone]
33 nM | 12 nM | O=C(c1ncco1)C1CCN(Cc2ccc(Br)cc2)CC1 [Example 51, [1-(4-Bromo-benzyl)-piperidin-4-yl]-oxazol-2-yl-methanone]
96 nM | 51 nM | O=C(c1ncco1)C1CCN(Cc2cccc(C(F)(F)F)c2)CC1 [Example 18, Oxazol-2-yl-[1-(3-trifluoromethyl-benzyl)-piperidin-4-yl]-methanone]
87 nM | 17 nM | Cc1ccc2nc(Cl)c(CN3CCC(C(=O)c4ncco4)CC3)cc2c1 [Example 74, [1-(2-Chloro-6-methyl-quinolin-3-ylmethyl)-piperidin-4-yl]-oxazol-2-yl-methanone]
70 nM | 16 nM | O=C(c1ncco1)C1CCN(Cc2nc3ccccc3cc2Cl)CC1 [Example 80, [1-(3-Chloro-quinolin-2-ylmethyl)-piperidin-4-yl]-oxazol-2-yl-methanone]
6000 nM | 3000 nM | COc1ccc(CN2CCC(C(=O)c3ncco3)CC2)cc1OC [Example 43, [1-(3,4-Dimethoxy-benzyl)-piperidin-4-yl]-oxazol-2-yl-methanone]
24 nM | 27 nM | O=C(c1ncco1)C1CCN(Cc2ccc3c(c2)OC(F)(F)O3)CC1 [Example 71, [1-(2,2-Difluoro-benzo[1,3]dioxol-5-ylmethyl)-piperidin-4-yl]-oxazol-2-yl-methanone]
> 10000 nM | 7000 nM | COc1ccc(C(=O)N2CCC(C(=O)c3ncco3)CC2)cc1 [Example 9, [1-(4-Methoxy-benzoyl)-piperidin-4-yl]-oxazol-2-yl-methanone]
200 nM | 35 nM | O=C(c1ncco1)C1CCN(Cc2cccc(Br)c2)CC1 [Example 52, [1-(3-Bromo-benzyl)-piperidin-4-yl]-oxazol-2-yl-methanone]

Structure (SMILES) | IC50 (Rat FAAH) | IC50 (FAAH)
CC(C)COc1cccc(CN2CCC(C(=O)c3ncco3)CC2)c1 [Example 16, [1-(3-Isobutoxy-benzyl)-piperidin-4-yl]-oxazol-2-yl-methanone] | 975 nM | 31 nM
